From patent US20220105051A1, “COMPOUNDS FOR INCREASING MHC-I EXPRESSION AND MODULATING HISTONE DEACETYLASE ACTIVITY” (Cava Healthcare Inc., priority 2019, published 2022)
“Also recorded” adds a separate entry of the source.

How the values were obtained:
[1] = system: class I/II HDACs; experiment: HDAC-Glo I/II Assay in A9 cells; assay type: cell-based, murine; details: for HDAC activity at the lowest concentrations: 1 nM-100 nM; for class I/II HDAC activity: 1 nM-1 μM; for HDAC activity at higher concentrations: up to 1 uM
Method: Compounds P02-113 and P03-97-1 were analyzed for their effect on histone deacetylase activity in the A9 cell line, using the HDAC-Glo™ I/II Assay and Screening System (Promega). The linear range was established for the A9 cells in a black-walled, clear-bottomed 96 well plate (PerkinElmer). Cells were diluted to 10^5 cells/mL and serial diluted by two fold, to a final concentration of 98 cells/ml. All dilutions were plated in triplicates in a volume of 100 ul per well. Cells were left overnight at 37° C. for 24 hours before addition of HDAC class I/II reagent. Luminescence was read after 30 minute incubation with HDAC class I/II reagent. After determination of an optimal cell density of 30,000 cells/well, cells were plated in 96 well plate and left for 24 hours at 37° C. Media was used as a blank control, as well a positive control was included consisting of HeLa cells provided in the HDAC assay kit. […] HDAC class I/II reagent was then added and incubated for 30 minutes before luminescence was measured using the Infinite M200 (Tecan) and i-control software (Tecan).
HDAC assays. To assess the effect of the compounds on the relative activity of histone deacetylase (HDAC) class I and II enzymes in the A9 cell line, we used the HDAC-Glo™ I/II Assay and Screening System (Promega). The linear range was established for the A9 cells following the manufacturer's instructions. Thirty thousand cells per well were plated in clear-bottom 96-well plates (Perkin Elmer) and plates were incubated at 37° C. […] Cell culture media was used as a blank control and HeLa cells provided in the HDAC assay kit were used as a positive control. HDAC class I/II reagent was then added and incubated for 30 minutes before luminescence was measured using the Infinite M200 (Tecan) and i-control software (Tecan).

[2] = target: T1, HDAC3 (Homo sapiens, UniProt O15379); experiment: Individualized HDAC assay, HDAC3; assay type: biochemical; details: purified enzyme, 5 to 0.02 μM
T1 construct: purchased BPS Biosciences
T1 sequence (O15379 whole entry): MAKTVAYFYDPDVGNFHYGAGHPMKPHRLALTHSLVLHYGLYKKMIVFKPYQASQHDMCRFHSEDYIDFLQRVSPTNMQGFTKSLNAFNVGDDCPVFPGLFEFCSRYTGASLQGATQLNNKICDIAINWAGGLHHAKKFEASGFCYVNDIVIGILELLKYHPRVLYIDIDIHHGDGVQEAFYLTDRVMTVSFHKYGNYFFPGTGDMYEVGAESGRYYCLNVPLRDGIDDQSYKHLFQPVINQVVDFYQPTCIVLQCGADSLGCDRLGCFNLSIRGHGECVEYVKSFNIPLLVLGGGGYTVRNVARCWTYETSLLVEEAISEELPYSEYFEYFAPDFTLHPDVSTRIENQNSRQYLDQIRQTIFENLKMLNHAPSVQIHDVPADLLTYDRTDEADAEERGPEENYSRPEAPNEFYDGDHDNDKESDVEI
T1 sequence (Q9Y618 395-489 partner limits assumed): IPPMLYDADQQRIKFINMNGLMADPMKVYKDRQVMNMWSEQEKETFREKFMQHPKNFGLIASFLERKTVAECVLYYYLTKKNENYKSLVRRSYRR
Method: The activity of the curcuphenol analogues was assessed with purified HDAC enzymes from all classes I, II, and IV, as well as a select member of HDAC class III (SIRT1). HDACs 1-9 and SIRT1 were evaluated using HDAC Fluorogenic Assay Kits (BPS Biosciences). All assays were completed in black-sided clear-bottom 96 well plates (PerkinElmer), and all treatments were plated in triplicates. Treatment started at 5 μM and was two-fold diluted to a concentration 0.02 μM. The assays were measured using the Synergy HI hybrid reader (BioTek) and Gen5 software (BioTek), excitation was set to 360 nm and detection was measured at 450 nm with a gain of 100. […] Luminescence was read 30 minutes after HDAC-Glo™I/II reagent was added using the Synergy HI hybrid reader (BioTek) and Gen5 software (Bio-Tek). […] The relative mean of activity of the HDAC being measured was determined and all wells that received treatment were divided this average, to give a percentage of activity.
To evaluate the effect of the compounds on specific HDACs, their activity was assessed with purified HDAC enzymes from all classes I, II, and IV, as well as a select member of HDAC class III (SIRT1). HDACs 1-9 and SIRT1 were evaluated using HDAC Fluorogenic Assay Kits (BPS Biosciences) following the manufacturer's recommendations. […] The assays were measured using the Synergy HI hybrid reader (BioTek) and Gen5 software (Bio-Tek). […]

| SMILES | concentration of peak in HDAC activity [1] | HDAC activity at the lowest concentrations [1] | class I/II HDAC activity [1] | HDAC activity at higher concentrations [1] | HDAC3 activity [2] |
| --- | --- | --- | --- | --- | --- |
| COc1ccc(C(C)CCC=C(C)C)c(O)c1 (stereo not shown) [P03-97-1] | around 180 nM | induction of HDAC activity | increase in class I/II HDAC activity | maintained peak levels of HDAC activity | no significant change in HDAC activity |
| CC(C)=CCCCc1ccc(C)cc1O [P02-113] | around 180 nM | induction of HDAC activity | increase in class I/II HDAC activity | started to reduce it effect at higher concentrations; also recorded: started to reduce the effect at higher concentrations | no significant change in HDAC activity |
